The target in experiment [1] is T1, Agg-1 (Homo sapiens, UniProt O75173).
T1 sequence (O75173 213-837): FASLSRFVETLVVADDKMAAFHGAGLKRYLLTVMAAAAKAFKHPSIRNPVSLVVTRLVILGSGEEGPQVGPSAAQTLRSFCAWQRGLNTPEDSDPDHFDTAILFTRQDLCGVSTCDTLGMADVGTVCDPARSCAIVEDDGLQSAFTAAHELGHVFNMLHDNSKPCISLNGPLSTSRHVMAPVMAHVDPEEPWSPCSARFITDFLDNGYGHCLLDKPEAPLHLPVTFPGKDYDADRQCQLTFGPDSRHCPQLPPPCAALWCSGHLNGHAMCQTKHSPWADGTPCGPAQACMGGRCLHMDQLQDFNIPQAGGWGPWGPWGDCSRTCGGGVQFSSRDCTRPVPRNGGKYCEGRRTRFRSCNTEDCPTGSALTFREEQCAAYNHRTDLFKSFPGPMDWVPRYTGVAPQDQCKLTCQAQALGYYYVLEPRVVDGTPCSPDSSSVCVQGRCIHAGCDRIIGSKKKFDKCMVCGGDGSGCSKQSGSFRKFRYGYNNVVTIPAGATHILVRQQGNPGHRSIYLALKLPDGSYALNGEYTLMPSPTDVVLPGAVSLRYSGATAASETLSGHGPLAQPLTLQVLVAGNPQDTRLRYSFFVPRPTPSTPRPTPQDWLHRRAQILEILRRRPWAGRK
Kind of experiment: Agg-1 FRET assay. The format is biochemical. To be noted: for IC50: read-out: Agg1 IC50; for inhibition at 22 µM: @ 22000 nM; for inhibition at 33 µM: @ 33000 nM; for inhibition at […]: @ 1200 nM; for inhibition at 7.5 µM: @ 7500 nM. An excerpt:
The Agg-1/Agg-2 FRET data for N-[(8-hydroxyquinolin-2-yl)(phenyl)methyl]-2-phenoxyacetamide and 2-{[(phenoxyacetyl)amino](phenyl)methyl}quinolin-8-yl phenoxyacetate is presented in Table 1.

The target of experiment [2] is T2, recombinant human Aggrecanase-2 Agg2-Phe628 (Homo sapiens, UniProt Q9UNA0).
T2 sequence (Q9UNA0 262-628 limits assumed): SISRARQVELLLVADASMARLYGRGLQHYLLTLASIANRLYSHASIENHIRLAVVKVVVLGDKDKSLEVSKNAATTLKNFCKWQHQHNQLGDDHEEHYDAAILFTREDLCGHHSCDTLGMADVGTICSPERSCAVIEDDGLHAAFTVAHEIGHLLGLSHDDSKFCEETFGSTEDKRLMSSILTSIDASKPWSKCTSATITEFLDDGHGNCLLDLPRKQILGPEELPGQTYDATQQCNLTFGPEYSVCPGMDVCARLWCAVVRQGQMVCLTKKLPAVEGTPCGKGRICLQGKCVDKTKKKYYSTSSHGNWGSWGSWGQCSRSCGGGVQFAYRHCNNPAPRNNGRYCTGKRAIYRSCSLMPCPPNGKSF
In words: Aggrecanase 2 in vitro enzyme assay (Agg-2 FRET, quenched fluorescent peptide substrate). The note with it: for inhibition at […]: @ 2500 nM. The format is biochemical. Details: purified recombinant human Aggrecanase-2 Agg2-Phe628 (MW=41,737); This is a truncated form of full-length human aggrecanase-2; made in house; host or cells: CHO cells. Summed up: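 Kinetic fluorescence (λex 340, λem 420 nm) monitored over 40 min at 30 °C after adding 25 μM final Abz/Dnp brevican-based quenched peptide. Enzyme: recombinant truncated human Agg2-Phe628 from CHO, 0.5 μg/ml final, mixed with inhibitor first; buffer HEPES pH 7.5 with NaCl, CaCl2, CHAPS, glycerol; compounds in duplicate.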

[3] abbreviates: read-out: Agg-2 FRET Median IC50.

Several values for one entry are separate records, joined by “and”; a condition that tells them apart may be missing. Equal values may be shown once. Read-outs that look alike come from different tables or passages of the source. Where only a bound is given, the exact number is not on record here.

Turning to `O=C(COc1ccccc1)NC(c1ccc2c(c1)CCO2)c1cc(Cl)c2cccnc2c1O` (centres unmarked) [Example 170, N-[(5-chloro-8-hydroxyquinolin-7-yl)(2,3-dihydro-1-benzofuran-5-yl)methyl]-2-phenoxyacetamide], the inhibition at 7.4 µM in experiment [1] (@ 7400 nM, read-out: Agg1 %) was found to be 43%. Also, in experiment [2] (read-out: Agg2 IC50), the IC50 came out at 2.4 µM.
As to `Cn1cc(C(NC(=O)COc2ccccc2)c2cc(Cl)c3cccnc3c2O)c2ccccc21` (centres unmarked) [N-[(5-chloro-8-hydroxyquinolin-7-yl)(1-methyl-1H-indol-3-yl)methyl]-2-phenoxyacetamide], the inhibition at 11 µM in experiment [1] (@ 11000 nM, read-out: Agg1 %) was found to be 46%. For the same molecule, the inhibition at […] in experiment [2] came to 53%.
Regarding `COc1ccc(C(NC(=O)COc2ccccc2)c2cc(Cl)c3cccnc3c2O)cc1OC` (centres unmarked) [N-[(5-chloro-8-hydroxyquinolin-7-yl)(3,4-dimethoxyphenyl)methyl]-2-phenoxyacetamide], the IC50 in experiment [1] is greater than 1.5 µM; in experiment [2] (setting [3]), 1.06 µM and 5.19 µM.
As for `O=C(CNCc1ccccc1)NC(c1ccccc1)c1cc(Cl)c2cccnc2c1O` (centres unmarked) [Example 223, N2-benzyl-N-[(5-chloro-8-hydroxyquinolin-7-yl)(phenyl)methyl]glycinamide], the IC50 in experiment [1] was greater than 20 µM; in experiment [2] (read-out: Agg2 IC50) it was 3.75 µM; in experiment [2] (setting [3]), 3.75 µM.
For `COc1ccc(C(NC(=O)COc2ccccc2)c2cc(Cl)c3cccnc3c2O)c2ccccc12` (centres unmarked) [N-[(5-chloro-8-hydroxyquinolin-7-yl)(4-methoxy-1-naphthyl)methyl]-2-phenoxyacetamide], the inhibition at 22 µM in experiment [1] (read-out: Agg1 %) is 62%. The IC50 in experiment [2] (read-out: Agg2 IC50) was 0.8 µM.
`Cc1ccsc1C(NC(=O)COc1ccccc1)c1cc(Cl)c2cccnc2c1O` (centres unmarked) [N-[(5-chloro-8-hydroxyquinolin-7-yl)(3-methyl-2-thienyl)methyl]-2-phenoxyacetamide]: the inhibition at 33 µM in experiment [1] (read-out: Agg1 %) came to 33%. Also, the IC50 in experiment [2] (read-out: Agg2 IC50) and in experiment [2] (setting [3]) was 1.37 µM in each case.
For `O=C(COc1ccccc1)NC(c1ccc(-c2ccncc2)cc1)c1cc(Cl)c2cccnc2c1O` (centres unmarked) [N-[(5-chloro-8-hydroxyquinolin-7-yl)(4-pyridin-4-ylphenyl)methyl]-2-phenoxyacetamide], the IC50 in experiment [1] was 4.7 µM. Also, in experiment [2] (@ 800 nM), the inhibition at 0.8 µM amounted to 48%.
With `O=C(Cc1ccccc1)NC(c1ccccc1Cl)c1cc(Cl)c2cccnc2c1O` (centres unmarked) [N-[(5-chloro-8-hydroxyquinolin-7-yl)(2-chlorophenyl)methyl]-2-phenylacetamide], in experiment [1] (read-out: Agg1 %), the inhibition at […] is 29%. The IC50 in experiment [2] (read-out: Agg2 IC50) and in experiment [2] (setting [3]) was 1.54 µM each time.
On to `O=C(COc1ccccc1)NC(c1cc(Cl)c2cccnc2c1O)c1cccc2ncccc12` (centres unmarked) [N-[(5-chloro-8-hydroxyquinolin-7-yl)(quinolin-5-yl)methyl]-2-phenoxyacetamide], for which the inhibition at 22 µM in experiment [1] (read-out: Agg1 %) is 46%. The IC50 in experiment [2] (read-out: Agg2 IC50) was determined as 3.5 µM; in experiment [2] (setting [3]) it was 3.52 µM.
On to `CC(=O)Nc1cccc(C(NC(=O)COc2ccccc2)c2cc(Cl)c3cccnc3c2O)c1` (centres unmarked) [Example 204, N-[[3-(acetylamino)phenyl](5-chloro-8-hydroxyquinolin-7-yl)methyl]-2-phenoxyacetamide], for which the IC50 is greater than 20 µM in experiment [1], 3.76 µM in experiment [2] (read-out: Agg2 IC50) and 3.76 µM in experiment [2] (setting [3]).
With `CC(C)c1ccc(C(NC(=O)COc2ccccc2)c2cc(Cl)c3cccnc3c2O)cc1` (centres unmarked) [N-[(5-chloro-8-hydroxyquinolin-7-yl)(4-isopropylphenyl)methyl]-2-phenoxyacetamide], the inhibition at 33 µM in experiment [1] (read-out: Agg1 %) was 47%. Moreover, the inhibition at […] in experiment [2] was determined as 45%.
For `O=C(Cc1ccccc1)NC(c1ccccc1)c1cc(Cl)c2cccnc2c1O` (centres unmarked) [N-[(5-chloro-8-hydroxyquinolin-7-yl)(phenyl)methyl]-2-phenylacetamide], the inhibition at […] in experiment [1] (read-out: Agg1 %) was 20%. The IC50 in experiment [2] (read-out: Agg2 IC50) and in experiment [2] (setting [3]) was 2.53 µM each time.
As for `O=C(COc1ccccc1)NC(c1cc2c(cc1Cl)OCO2)c1cc(Cl)c2cccnc2c1O` (centres unmarked) [N-[(6-chloro-1,3-benzodioxol-5-yl)(5-chloro-8-hydroxyquinolin-7-yl)methyl]-2-phenoxyacetamide], the IC50 in experiment [1] was greater than 30 µM; in experiment [2] (read-out: Agg2 IC50), 1.37 µM; in experiment [2] (setting [3]), 1.37 µM.
Turning to `COc1ccc(C(NC(=O)COc2ccccc2)c2cc(Cl)c3cccnc3c2O)cc1OCc1ccccc1` (centres unmarked) [N-[[3-(benzyloxy)-4-methoxyphenyl](5-chloro-8-hydroxyquinolin-7-yl)methyl]-2-phenoxyacetamide], the inhibition at 7.5 µM in experiment [1] (read-out: Agg1 %) was found to be 54%. For the same molecule, the IC50 in experiment [2] (read-out: Agg2 IC50) is 1.04 µM.
Take `O=C(CNCc1ccc2c(c1)OCO2)NC(c1ccccc1)c1cc(Cl)c2cccnc2c1O` (centres unmarked) [Example 226, N^2-(1,3-benzodioxol-5-ylmethyl)-N-[(5-chloro-8-hydroxyquinolin-7-yl)(phenyl)methyl]glycinamide]: the figures for the IC50 in experiment [1], in experiment [2] (read-out: Agg2 IC50) and in experiment [2] (setting [3]) were greater than 11 µM, 2.75 µM and 2.75 µM, respectively.
`COc1ccccc1C(NC(=O)COc1ccccc1)c1cc(Cl)c2cccnc2c1O` (centres unmarked) [Example 122, N-[(5-chloro-8-hydroxyquinolin-7-yl)(2-methoxyphenyl)methyl]-2-phenoxyacetamide]: in experiment [1] (@ 667000 nM, read-out: Agg1 %), the inhibition at 667 µM is 48%. In addition, the IC50 in experiment [2] (read-out: Agg2 IC50) was 2.3 µM; in experiment [2] (setting [3]), 2.34 µM.
Turning to `O=C(COc1ccccc1)NC(c1cc(Cl)c2cccnc2c1O)c1coc2ccccc2c1=O` (centres unmarked) [N-[(5-chloro-8-hydroxyquinolin-7-yl)(4-oxo-4H-chromen-3-yl)methyl]-2-phenoxyacetamide], the half-inhibitory concentration (IC50) in experiment [1] is roughly 11 µM. For the same molecule, in experiment [2], the inhibition at […] is 72%.
Regarding `O=C(COc1ccccc1)NC(c1ccccc1Cl)c1cc(Cl)c2cccnc2c1O` (centres unmarked) [N-[(5-chloro-8-hydroxyquinolin-7-yl)(2-chlorophenyl)methyl]-2-phenoxyacetamide], the IC50 was greater than 22 µM in experiment [1]; 1.55 µM in experiment [2] (read-out: Agg2 IC50); 1.55 µM and 0.35 µM in experiment [2] (setting [3]).
Turning to `O=C(COc1ccccc1)NC(c1cccc(Oc2ccccc2)c1)c1cc(Cl)c2cccnc2c1O` (centres unmarked) [Example 131, N-[(5-chloro-8-hydroxyquinolin-7-yl)(3-phenoxyphenyl)methyl]-2-phenoxyacetamide], the figures for the IC50 in experiment [1] and in experiment [2] (read-out: Agg2 IC50) were greater than 67 µM and 4.1 µM, respectively.
For `O=C(CNCc1ccccn1)NC(c1ccccc1)c1cc(Cl)c2cccnc2c1O` (centres unmarked) [Example 227, N-[(5-chloro-8-hydroxyquinolin-7-yl)(phenyl)methyl]-N2-(pyridin-2-ylmethyl)glycinamide], in that order: greater than 50 µM and 3.87 µM.
As to `O=C(COc1ccccc1)N[C@H](c1ccccc1Cl)c1cc(Cl)c2cccnc2c1O` [N-[(S)-(5-chloro-8-hydroxyquinolin-7-yl)(2-chlorophenyl)methyl]-2-phenoxyacetamide], the inhibition at 22.2 µM in experiment [1] (@ 22200 nM, read-out: Agg1 %) turned out to be 54%. Moreover, the IC50 in experiment [2] (read-out: Agg2 IC50) is 0.876 µM; in experiment [2] (setting [3]), 0.876 µM and 1.34 µM.
Regarding `O=C(CCl)NC(c1ccccc1)c1cc(Br)c2cccnc2c1O` (centres unmarked) [N-[(5-bromo-8-hydroxyquinolin-7-yl)(phenyl)methyl]-2-chloroacetamide], the IC50 in experiment [1] was 22 to 67 µM; in experiment [2] (read-out: Agg2 IC50), 5.4 µM.
For the molecule `O=C(COc1ccccc1)NC(c1cc2n(n1)CCC2)c1cc(Cl)c2cccnc2c1O` (centres unmarked) [Example 179, N-[(5-chloro-8-hydroxyquinolin-7-yl)(5,6-dihydro-4H-pyrrolo[1,2-b]pyrazol-2-yl)methyl]-2-phenoxyacetamide], the figures for the IC50 in experiment [1] and in experiment [2] (read-out: Agg2 IC50) were greater than 20 µM and roughly 2.5 µM, respectively.
Take `O=C(COc1ccccc1)NC(/C=C/c1ccccc1)c1cc(Cl)c2cccnc2c1O` (centres unmarked) [N-[(2E)-1-(5-chloro-8-hydroxyquinolin-7-yl)-3-phenylprop-2-en-1-yl]-2-phenoxyacetamide]: the inhibition at 7.5 µM in experiment [1] (read-out: Agg1 %) worked out at 50%. In addition, in experiment [2] (read-out: Agg2 IC50), the IC50 is 1.6 µM.

The term IC50 denotes the concentration needed to halve the response being measured.
